The target in test [1] is PI3Kγ (p110γ) Recombinant Human Protein (Homo sapiens (Human), UniProt P48736). Description: PI3K-γ scintillation proximity assay. It counts as biochemical. The note with it: 20 μM PIP2, 2 μM ATP, 13 nM PI3Kγ, 120 min, room temperature. The essentials:
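Radiometric SPA in 20 mM MOPS pH 6.7, 10 mM MgCl2, 5 mM DTT, 0.03% CHAPS, 2% DMSO. Stopped with EDTA and WGA SPA beads for scintillation counting. IC50 fitted from % solvent-control activity versus log concentration.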

The target of test [2] is PI3Kδ (p110δ/p85α) Recombinant Human Protein (Homo sapiens (Human), UniProt O00329). Nature of the test: PI3Kδ scintillation proximity assay. Format: biochemical. The note with it: 20 μM PIP2, 2 μM ATP, 3.4 nM PI3Kδ, 120 min, room temperature. In short, it runs like this:
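Recombinant human p110δ/p85α was run at room temperature in 20 mM MOPS pH 6.7, 10 mM MgCl2, 5 mM DTT, 0.03% CHAPS, 2% DMSO. Substrates were 20 µM PIP2 and 2 µM ATP with [γ-33P]ATP. Product was captured overnight on WGA SPA beads and counted by scintillation; IC50 fitted from percent of solvent control versus log concentration.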
On the technique in general: SPA uses beads or plates that emit light when radiolabelled molecules are held near them.

Test [3] has as its system Phosphorylated Ribosomal Protein S6 (RPS6) in THP-1 cells. Description: THP-1 RPS6 ELISA assay. It counts as cell-based, Human. Particulars: serum starved, 2 h compound, 10 nM MCP-1 for 15 min, phospho-RPS6 ELISA, read-out: PI3Kγ_THP1_RPS6_ELISA IC50. Here is the method:
Example A. THP-1 RPS6 ELISA Assay
To measure the Phosphorylated Ribosomal Protein S6 (RPS6) in cell lysates, THP-1 cells (Human Acute Monocytic Leukemia) are purchased from ATCC (Manassas, Va.) and maintained in RPMI with 10% FBS (Gibco/Life Technologies, Carlsbad, Calif.). For the assay, THP-1 cells are serum starved overnight in RPMI, then plated in RPMI (2×10^5 cells/well in 90 μL) into 96-well flat-bottom tissue culture treated plates (Corning, Corning, N.Y.), in the presence or absence of a concentration range of test compounds. Covered plates are incubated for 2 hours at 37° C., 5% CO2 then treated with or without 10 nM MCP-1 (MYBioSource, San Diego, Calif.) for 15 minutes at 37° C., 5% CO2. Plates are centrifuged at 1600 RPM and supernatants are removed. Cells are lysed in Lysis Buffer (Cell Signaling, Danvers, Mass.) with Protease Inhibitor (Calbiochem/EMD, Germany), PMSF (Sigma, St Louis Mo.), HALTS (Thermo Fisher, Rockford, Ill.) for 30 min on wet ice. Cell lysates are frozen at −80° C. before testing. The lysates are tested in the Human/Mouse/Rat Phospho-RPS6 ELISA (R&D Systems, Inc. Minn, Minn.). The plate is measured using a microplate reader (SpectraMax M5—Molecular Devices, LLC Sunnyvale, Calif.) set to 450 nm with a wavelength correction of 540. IC50 determination is performed by fitting the curve of inhibitor percent inhibition versus the log of the inhibitor concentration using the GraphPad Prism 5.0 software.
For orientation: In an ELISA, binding on a coated surface is turned into a signal by an enzyme label.

Where [4] appears, read: Homo sapiens, THP-1, THP-1 cells.

Counter-ions that a name gives are not always drawn. Like-named read-outs stand apart in the source and are kept apart here.

Chain of PI3Kγ (p110γ) Recombinant Human Protein (P48736 whole entry): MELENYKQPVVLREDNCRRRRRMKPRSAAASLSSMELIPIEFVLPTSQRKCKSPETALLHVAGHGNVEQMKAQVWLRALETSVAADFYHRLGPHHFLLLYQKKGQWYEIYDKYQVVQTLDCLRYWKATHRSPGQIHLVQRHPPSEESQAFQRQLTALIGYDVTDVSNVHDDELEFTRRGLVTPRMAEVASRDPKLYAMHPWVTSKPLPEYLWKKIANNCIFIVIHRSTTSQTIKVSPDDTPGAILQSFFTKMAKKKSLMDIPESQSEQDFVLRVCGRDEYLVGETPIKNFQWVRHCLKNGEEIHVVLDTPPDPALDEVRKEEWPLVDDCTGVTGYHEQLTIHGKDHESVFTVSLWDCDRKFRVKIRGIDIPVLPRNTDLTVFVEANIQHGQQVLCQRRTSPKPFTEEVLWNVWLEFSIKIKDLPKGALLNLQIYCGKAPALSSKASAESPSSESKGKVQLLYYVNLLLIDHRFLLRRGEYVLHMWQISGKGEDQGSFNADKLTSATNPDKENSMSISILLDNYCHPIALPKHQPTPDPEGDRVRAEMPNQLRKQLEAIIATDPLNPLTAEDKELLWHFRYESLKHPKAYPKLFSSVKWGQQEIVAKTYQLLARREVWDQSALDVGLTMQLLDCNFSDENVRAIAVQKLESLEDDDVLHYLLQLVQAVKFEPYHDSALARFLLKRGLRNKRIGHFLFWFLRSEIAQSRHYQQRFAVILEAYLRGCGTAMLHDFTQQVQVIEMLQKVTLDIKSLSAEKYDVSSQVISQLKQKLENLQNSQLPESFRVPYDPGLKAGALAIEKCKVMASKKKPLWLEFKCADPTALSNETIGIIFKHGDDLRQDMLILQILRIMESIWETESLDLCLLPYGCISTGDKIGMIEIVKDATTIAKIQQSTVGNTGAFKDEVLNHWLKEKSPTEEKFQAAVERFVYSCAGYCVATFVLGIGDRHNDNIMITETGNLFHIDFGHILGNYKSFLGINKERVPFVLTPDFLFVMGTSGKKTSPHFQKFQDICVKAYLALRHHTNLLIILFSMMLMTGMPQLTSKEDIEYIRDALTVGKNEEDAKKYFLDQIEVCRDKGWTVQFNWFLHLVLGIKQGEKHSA
Chain of PI3Kδ (p110δ/p85α) Recombinant Human Protein (O00329 whole entry): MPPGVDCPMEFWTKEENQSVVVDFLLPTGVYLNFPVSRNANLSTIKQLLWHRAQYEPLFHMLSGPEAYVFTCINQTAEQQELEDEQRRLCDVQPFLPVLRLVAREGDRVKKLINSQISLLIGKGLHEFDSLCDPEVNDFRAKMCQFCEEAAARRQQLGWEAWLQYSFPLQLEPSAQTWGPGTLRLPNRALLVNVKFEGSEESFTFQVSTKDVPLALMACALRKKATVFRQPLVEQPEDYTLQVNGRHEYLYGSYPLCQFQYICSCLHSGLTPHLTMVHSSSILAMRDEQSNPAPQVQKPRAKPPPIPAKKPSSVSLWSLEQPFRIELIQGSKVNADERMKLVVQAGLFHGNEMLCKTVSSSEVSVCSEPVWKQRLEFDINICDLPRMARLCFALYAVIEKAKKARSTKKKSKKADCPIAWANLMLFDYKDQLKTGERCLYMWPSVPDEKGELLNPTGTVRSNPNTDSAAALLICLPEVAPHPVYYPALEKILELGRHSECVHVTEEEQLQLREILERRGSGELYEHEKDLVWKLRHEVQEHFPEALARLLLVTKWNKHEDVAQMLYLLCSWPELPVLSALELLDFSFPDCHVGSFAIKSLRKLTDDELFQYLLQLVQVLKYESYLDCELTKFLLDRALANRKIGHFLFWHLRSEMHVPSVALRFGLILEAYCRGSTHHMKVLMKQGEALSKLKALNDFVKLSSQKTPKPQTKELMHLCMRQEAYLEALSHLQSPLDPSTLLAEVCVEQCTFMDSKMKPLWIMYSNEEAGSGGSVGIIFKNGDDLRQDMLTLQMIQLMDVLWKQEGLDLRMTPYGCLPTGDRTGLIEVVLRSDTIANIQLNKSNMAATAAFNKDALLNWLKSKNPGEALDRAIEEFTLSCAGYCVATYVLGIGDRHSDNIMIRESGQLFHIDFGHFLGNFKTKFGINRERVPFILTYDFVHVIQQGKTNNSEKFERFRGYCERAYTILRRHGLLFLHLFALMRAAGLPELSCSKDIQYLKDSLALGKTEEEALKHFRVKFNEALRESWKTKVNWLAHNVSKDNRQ
Chain of PI3Kδ (p110δ/p85α) Recombinant Human Protein (P27986 whole entry partner): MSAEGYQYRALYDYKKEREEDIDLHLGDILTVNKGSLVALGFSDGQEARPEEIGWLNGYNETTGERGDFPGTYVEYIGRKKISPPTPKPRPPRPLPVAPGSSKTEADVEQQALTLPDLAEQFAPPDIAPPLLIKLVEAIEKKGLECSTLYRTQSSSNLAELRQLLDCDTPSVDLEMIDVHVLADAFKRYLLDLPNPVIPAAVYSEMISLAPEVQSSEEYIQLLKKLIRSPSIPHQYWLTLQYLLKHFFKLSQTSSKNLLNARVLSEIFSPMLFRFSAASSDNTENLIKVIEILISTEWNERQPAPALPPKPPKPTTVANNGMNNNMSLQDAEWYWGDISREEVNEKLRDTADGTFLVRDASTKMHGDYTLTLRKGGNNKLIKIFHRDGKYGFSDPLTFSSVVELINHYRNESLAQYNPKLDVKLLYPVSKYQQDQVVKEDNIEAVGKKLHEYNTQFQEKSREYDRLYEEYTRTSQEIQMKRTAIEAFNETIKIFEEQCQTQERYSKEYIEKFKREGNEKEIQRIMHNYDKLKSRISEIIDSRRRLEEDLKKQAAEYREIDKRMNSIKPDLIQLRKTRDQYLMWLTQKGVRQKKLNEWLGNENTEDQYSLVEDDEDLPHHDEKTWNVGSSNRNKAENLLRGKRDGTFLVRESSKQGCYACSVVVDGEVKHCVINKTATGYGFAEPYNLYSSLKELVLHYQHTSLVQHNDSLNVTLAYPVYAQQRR

Turning to `Cc1ccc(C(C)(O)C(F)(F)F)cc1-c1cnc2c(N)nc(C3CC(CO)C3)cn12` (single isomer, unassigned) [Example 208, 2-(3-(8-amino-6-(3-(hydroxymethyl)cyclobutyl)imidazo[1,2-a]pyrazin-3-yl)-4-methylphenyl)-1,1,1-trifluoropropan-2-ol trifluoroacetate], the IC50 in test [1], in test [2] (read-out: PI3Kδ IC50) and in test [3] (THP-1 cells) was less than 100 nM in each case.
Consider `[2H]C([2H])([2H])c1ccc(C(O)(C(C)O)C(F)(F)F)cc1-c1cnc2c(N)nc(C(F)(F)F)cn12` (single isomer, unassigned) [Example 233, 2-(3-(8-Amino-6-(trifluoromethyl)imidazo[1,2-a]pyrazin-3-yl)-4-(methyl-d3)phenyl)-1,1,1-trifluorobutane-2,3-diol trifluoroacetate salt], for which the IC50 in test [1] is less than 100 nM; in test [2] (read-out: PI3Kδ IC50), 100 to 500 nM; in test [3] (setting [4]) it was 100 to 500 nM.
With `[2H]C([2H])([2H])c1ccc(C(C)(O)C(F)(F)F)cc1-c1cnc2c(N)nc(C(C)(C)O)cn12` (single isomer, unassigned) [Example 253, 2-(3-(8-Amino-6-(2-hydroxypropan-2-yl)imidazo[1,2-a]pyrazin-3-yl)-4-(methyl-d3)phenyl)-1,1,1-trifluoropropan-2-ol trifluoroacetate salt], the IC50 in test [1] was less than 100 nM; in test [2] (read-out: PI3Kδ IC50) it was 100 to 500 nM; in test [3] (setting [4]), 100 to 500 nM.
In the case of `Cc1ccc(C(C)(O)C(F)(F)F)cc1-c1cnc2c(N)nc(C(F)(F)F)nn12` (stereo not drawn) [Example 1, 2-(3-(4-Amino-2-(trifluoromethyl)imidazo[2,1-f][1,2,4]triazin-7-yl)-4-methylphenyl)-1,1,1-trifluoropropan-2-ol], the figures for the IC50 in test [1], in test [2] (read-out: PI3Kδ IC50) and in test [3] (setting [4]) were less than 100 nM, 100 to 500 nM and 100 to 500 nM, respectively.
Regarding `Cc1nc(N)c2ncc(-c3cc(C(C)(O)C(F)(F)F)ccc3C)n2n1` (stereo not drawn) [Example 2, 2-(3-(4-Amino-2-methylimidazo[2,1-f][1,2,4]triazin-7-yl)-4-methylphenyl)-1,1,1-trifluoropropan-2-ol], the IC50 in test [1] is less than 100 nM; in test [2] (read-out: PI3Kδ IC50) it was 500 to 2000 nM; in test [3] (setting [4]) it was 500 to 1000 nM.
In the case of `Cc1ccc(C(C)(O)C(F)(F)F)cc1-c1cnc2c(N)nc(C(F)(F)F)cn12` (stereo not drawn) [Example 4, 2-(3-(8-Amino-6-(trifluoromethyl)imidazo[1,2-a]pyrazin-3-yl)-4-methylphenyl)-1,1,1-trifluoropropan-2-ol], the IC50 was less than 100 nM in test [1], 100 to 500 nM in test [2] (read-out: PI3Kδ IC50) and 100 to 500 nM in test [3] (setting [4]).
On to `COC(=O)c1cn2c(-c3cc(C(C)(O)C(F)(F)F)ccc3C)cnc2c(N)n1` (stereo not drawn) [Example 8, Methyl 8-amino-3-(2-methyl-5-(1,1,1-trifluoro-2-hydroxypropan-2-yl)phenyl)imidazo[1,2-a]pyrazine-6-carboxylate], for which the values for the IC50 in test [1], in test [2] (read-out: PI3Kδ IC50) and in test [3] (setting [4]) were less than 100 nM, 500 to 2000 nM and 500 to 1000 nM, respectively.
As for `CNC(=O)c1cn2c(-c3cc(C(C)(O)C(F)(F)F)ccc3C)cnc2c(N)n1` (stereo not drawn) [Example 9, 8-Amino-N-methyl-3-(2-methyl-5-(1,1,1-trifluoro-2-hydroxypropan-2-yl)phenyl)imidazo[1,2-a]pyrazine-6-carboxamide], the IC50 in test [1] is less than 100 nM; in test [2] (read-out: PI3Kδ IC50), 100 to 500 nM; in test [3] (setting [4]), 100 to 500 nM.
As to `Cc1ccc(C(C)(O)C(F)(F)F)cc1-c1cnc2c(N)nc(-c3ccnc(CO)c3)cn12` (stereo not drawn) [Example 10, 2-(3-(8-Amino-6-(2-(hydroxymethyl)pyridin-4-yl)imidazo[1,2-a]pyrazin-3-yl)-4-methylphenyl)-1,1,1-trifluoropropan-2-ol], the IC50 in test [1] is less than 100 nM; in test [2] (read-out: PI3Kδ IC50), less than 100 nM; in test [3] (setting [4]), 100 to 500 nM.
As to `Cc1ccc(C(O)(c2nnnn2C)C(F)(F)F)cc1-c1cnc2c(N)nc(C(F)(F)F)cn12` (stereo not drawn) [Example 13, 1-(3-(8-Amino-6-(trifluoromethyl)imidazo[1,2-a]pyrazin-3-yl)-4-methylphenyl)-2,2,2-trifluoro-1-(1-methyl-1H-tetrazol-5-yl)ethan-1-ol trifluoroacetate], the IC50 in test [1] was less than 100 nM; in test [2] (read-out: PI3Kδ IC50) it was 100 to 500 nM; in test [3] (setting [4]) it was 100 to 500 nM.
Consider `CNCCC(O)(c1ccc(C)c(-c2cnc3c(N)nc(C(F)(F)F)cn23)c1)C(F)(F)F` (stereo not drawn) [Example 14, 2-(3-(8-Amino-6-(trifluoromethyl)imidazo[1,2-a]pyrazin-3-yl)-4-methylphenyl)-1,1,1-trifluoro-4-(methylamino)butan-2-ol bis(2,2,2-trifluoroacetate)], for which the IC50 in test [1] is less than 100 nM; in test [2] (PI3Kδ IC50 (nM)) it was 100 to 500 nM; in test [3] (setting [4]), less than 100 nM.
Turning to `Cc1ccc(C(O)(CCO)C(F)(F)F)cc1-c1cnc2c(N)nc(C(F)(F)F)cn12` (stereo not drawn) [Example 18, 3-(3-(8-Amino-6-(trifluoromethyl)imidazo[1,2-a]pyrazin-3-yl)-4-methylphenyl)-4,4,4-trifluorobutane-1,3-diol], the IC50 in test [1] is less than 100 nM; in test [2] (read-out: PI3Kδ IC50) it was 100 to 500 nM; in test [3] (setting [4]), 100 to 500 nM.
Regarding `Cc1ccc(C(O)(C2CC2)C(F)(F)F)cc1-c1cnc2c(N)nc(C(F)(F)F)cn12` (stereo not drawn) [Example 19, 1-(3-(8-Amino-6-(trifluoromethyl)imidazo[1,2-a]pyrazin-3-yl)-4-methylphenyl)-1-cyclopropyl-2,2,2-trifluoroethan-1-ol], the IC50 in test [1] was less than 100 nM; in test [2] (read-out: PI3Kδ IC50), 100 to 500 nM; in test [3] (setting [4]), more than 1000 nM.
Consider `Cc1ccc(C(C)(O)C(F)(F)F)cc1-c1cnc2c(N)nc(-c3cnc(C4CC4)s3)cn12` (stereo not drawn) [Example 20, 2-(3-(8-Amino-6-(2-cyclopropylthiazol-5-yl)imidazo[1,2-a]pyrazin-3-yl)-4-methylphenyl)-1,1,1-trifluoropropan-2-ol, TFA], for which the IC50 in test [1] was less than 100 nM; in test [2] (read-out: PI3Kδ IC50), less than 100 nM; in test [3] (setting [4]), 100 to 500 nM.
`COc1cnc(-c2cn3c(-c4cc(C(C)(O)C(F)(F)F)ccc4C)cnc3c(N)n2)s1` (stereo not drawn) [Example 21, 2-(3-(8-Amino-6-(5-methoxythiazol-2-yl)imidazo[1,2-a]pyrazin-3-yl)-4-methylphenyl)-1,1,1-trifluoropropan-2-ol, TFA]: the IC50 is less than 100 nM in test [1], less than 100 nM in test [2] (read-out: PI3Kδ IC50) and 100 to 500 nM in test [3] (setting [4]).
Turning to `Cc1cc(CNC(=O)c2cn3c(-c4cc(C(C)(O)C(F)(F)F)ccc4C)cnc3c(N)n2)on1` (stereo not drawn) [Example 22, 8-Amino-3-(2-methyl-5-(1,1,1-trifluoro-2-hydroxypropan-2-yl)phenyl)-N-((3-methylisoxazol-5-yl)methyl)imidazo[1,2-a]pyrazine-6-carboxamide, TFA], the IC50 in test [1] was less than 100 nM; in test [2] (read-out: PI3Kδ IC50), less than 100 nM; in test [3] (setting [4]), 100 to 500 nM.
Take `Cc1ccc(C(O)C(F)(F)F)cc1-c1cnc2c(N)nc(C(F)(F)F)cn12` (stereo not drawn) [Example 23, 1-(3-(8-Amino-6-(trifluoromethyl)imidazo[1,2-a]pyrazin-3-yl)-4-methylphenyl)-2,2,2-trifluoroethan-1-ol trifluoroacetate salt]: the IC50 is less than 100 nM in test [1], 500 to 2000 nM in test [2] (read-out: PI3Kδ IC50) and 500 to 1000 nM in test [3] (setting [4]).
For `Cc1ncc(-c2cn3c(-c4cc(C(C)(O)C(F)F)ccc4C)cnc3c(N)n2)o1` (stereo not drawn) [Example 28, 2-(3-(8-Amino-6-(2-methyloxazol-5-yl)imidazo[1,2-a]pyrazin-3-yl)-4-methylphenyl)-1,1-difluoropropan-2-ol] the same measures were less than 100 nM, less than 100 nM and 100 to 500 nM.
Turning to `Cc1ccc(C(C)(O)C(F)F)cc1-c1cnc2c(N)nc(-c3cc(C(N)=O)ccc3F)cn12` (stereo not drawn) [Example 31, 3-(8-Amino-3-(5-(1,1-difluoro-2-hydroxypropan-2-yl)-2-methylphenyl)imidazo[1,2-a]pyrazin-6-yl)-4-fluorobenzamide], the figures for the IC50 in test [1], in test [2] (read-out: PI3Kδ IC50) and in test [3] (setting [4]) were less than 100 nM, 100 to 500 nM and 100 to 500 nM, respectively.

For orientation: IC50 means the concentration that inhibits the measured activity by half.

Values taken from US10738057B2, “Tertiary alcohols as PI3K-γ inhibitors” (Incyte Corporation, priority 2017, dated 2020).
